Reference: patent US9353140B2, “BQC-G, a tumor-selective anti-cancer prodrug” (priority 2009, dated 2016)
Converted amounts (≈) assume the structure as drawn. “And” between values parts separate entries of the source, which are not always exact repeats. Equal entries are not always repeated. Where two headings read alike, the source gives them in different places.

Key:
E. coli β-glucuronidase = E. coli β-glucuronidase (Escherichia coli, UniProt P05804); conditions: for Kcat / Km: enzymatic hydrolysis by E. coli β-glucuronidase
[1] = system: CL1-5 human lung adenocarcinoma cells; assay: In vitro cytotoxicity (3H-thymidine incorporation), CL1-5; type: cell-based
Method: CL1-5 cells were exposed to the indicated concentrations of drugs with or without the addition of human serum albumin to 40 mg/ml. […] Bars show the SD.
(§1) The cancer cell lines were from ATCC except for CL1-5 human lung adenocarcinoma which was generous gift from Dr. PC Yang and EJ human bladder carcinoma cells. See Yang, P. C. et al., Characterization of the mucin differentiation in human lung adenocarcinoma cell lines. American journal of respiratory cell and molecular biology 1992, 7, 161-171; Marshall, C. J. et al., Markers of neoplastic transformation in epithelial cell lines derived from human carcinomas. J Natl Cancer Inst 1977, 58, 1743-51.
(§2) 5000-10000 cells/well in 96 well plate were exposed to graded concentration of the compounds for 48 h in the absence or presence of 40 mg/ml HSA. E. coli β-glucuronidase (1 μg/well) was added with BCC-G in some experiments. The cells were washed twice with PBS and incubated in fresh medium for 24 h before the cells were pulsed with 1 μC/well of ^3H-thimidine for 16 h. Cellular radioactivity in harvested cells was counted on a Topcount scintillation counter and IC50 values were calculated by fitting the data to a sigmoidal dose/response equation.

Water solubility = type: physicochemical
Method: […] Mixtures were centrifuged for 40 min at 20,000 g at room temperature. A sample from the water layer was analyzed by HPLC and quantified using standard curves generated with pure BQC and BQC-G.

[2] = Octanol/water partition coefficient; type: physicochemical; conditions: for Po/w (octanol/water partition coefficient): Buffer pH 4.5
Method: Octanol/Water Partition Coefficient
[…] One μg of either BQC or BQC-G was added to a mixture of 250 μl octanol and 250 μl of one of the three water based pre-equilibrated solvents. After mixing for 24 h at RT, the samples were centrifuged 20 min at 10,000×g. Samples of the octanol and water layers were analyzed by HPLC.

LS174T = assay: In vitro cytotoxicity (3H-thymidine incorporation), LS174T; type: cell-based
Method: as §2

CaSki = assay: In vitro cytotoxicity (3H-thymidine incorporation), CaSki; type: cell-based
Method: as §2

[3] = system: EJ human bladder carcinoma cells; assay: In vitro cytotoxicity (3H-thymidine incorporation), EJ; type: cell-based
Description: as §1, §2

other cancer cell lines = assay: In vitro cytotoxicity, other cancer cell lines; type: cell-based
Method: as §2

[4] = Stability in blood (human plasma/serum, 37° C., 24 h); type: in vitro ADME; conditions: 24 h at 37° C.
Method: Normal human plasma was spiked with BQC-G to 5 μM. The mixture was incubated 24 h at 37° C. during which time samples were periodically removed and analyzed by SPE-HPLC.

human β-glucuronidase = target: T1, human β-glucuronidase (Homo sapiens, UniProt P08236); assay: Hydrolysis of BQC-G by human β-glucuronidase; type: biochemical; conditions: low concentrations of human β-glucuronidase
T1 sequence (P08236 23-651): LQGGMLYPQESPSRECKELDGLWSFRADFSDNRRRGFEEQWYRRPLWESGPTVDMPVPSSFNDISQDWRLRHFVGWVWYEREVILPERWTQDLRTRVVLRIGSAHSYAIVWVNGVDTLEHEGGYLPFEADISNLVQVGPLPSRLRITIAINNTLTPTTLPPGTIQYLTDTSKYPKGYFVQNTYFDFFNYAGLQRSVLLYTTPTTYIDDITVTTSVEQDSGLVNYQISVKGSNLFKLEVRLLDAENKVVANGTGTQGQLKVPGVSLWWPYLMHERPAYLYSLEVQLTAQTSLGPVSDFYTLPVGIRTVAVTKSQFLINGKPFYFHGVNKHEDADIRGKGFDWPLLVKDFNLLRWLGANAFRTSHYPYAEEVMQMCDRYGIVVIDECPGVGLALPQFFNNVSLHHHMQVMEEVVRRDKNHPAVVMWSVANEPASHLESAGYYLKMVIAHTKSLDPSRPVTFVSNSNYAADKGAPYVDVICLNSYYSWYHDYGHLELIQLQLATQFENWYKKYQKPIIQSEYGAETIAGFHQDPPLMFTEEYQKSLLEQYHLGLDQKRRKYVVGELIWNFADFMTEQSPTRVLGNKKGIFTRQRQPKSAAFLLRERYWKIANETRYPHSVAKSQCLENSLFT
Description: Hydrolysis of BQC-G by β-glucuronidase

[5] = Homo sapiens, CL1-5, CL1-5, +HSA (40 mg/ml)
[6] = Homo sapiens, CL1-5, CL1-5, −HSA

Chain of E. coli β-glucuronidase (P05804 whole entry): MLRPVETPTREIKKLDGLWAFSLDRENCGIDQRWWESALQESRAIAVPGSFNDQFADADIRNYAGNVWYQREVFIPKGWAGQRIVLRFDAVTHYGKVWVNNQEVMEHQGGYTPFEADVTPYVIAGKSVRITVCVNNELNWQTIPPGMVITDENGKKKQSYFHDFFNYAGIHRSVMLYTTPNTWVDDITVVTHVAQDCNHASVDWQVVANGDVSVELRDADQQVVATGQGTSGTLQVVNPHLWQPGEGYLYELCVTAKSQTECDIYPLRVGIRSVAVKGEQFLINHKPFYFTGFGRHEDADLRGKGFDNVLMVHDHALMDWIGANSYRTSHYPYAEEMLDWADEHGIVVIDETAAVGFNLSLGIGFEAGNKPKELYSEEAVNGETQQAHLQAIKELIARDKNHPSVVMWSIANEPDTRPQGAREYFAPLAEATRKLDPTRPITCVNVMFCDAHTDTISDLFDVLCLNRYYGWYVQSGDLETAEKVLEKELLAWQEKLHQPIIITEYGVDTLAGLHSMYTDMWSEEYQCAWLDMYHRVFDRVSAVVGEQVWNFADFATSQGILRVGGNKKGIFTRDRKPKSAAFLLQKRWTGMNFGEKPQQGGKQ

Q: For `Cc1cc(=O)oc2cc(O[C@@H]3O[C@H](C(=O)O)[C@@H](O)[C@H](O)[C@H]3O)ccc12` [4-MUG, 4-methylumbelliferyl-β-D-glucuronide], which Kcat (E. coli β-glucuronidase) is on record?
A: 22.2 s⁻¹

Q: And the Km (E. coli β-glucuronidase)?
A: 80.2 ± 12.4 µM

Q: For `CC[C@@]1(O)C(=O)OCc2c1cc1n(c2=O)Cc2cc3c(N)cccc3nc2-1` [9AC, 9-amino-camptothecin], which “Cytotoxicity Ratio (IC50 in the presence of HSA to IC50 without HSA)” value [1] is on record?
A: 140

Q: And the “effect of HSA on cytotoxicity” value [1]?
A: profound decrease in cytotoxicity

Q: And the IC50 ([1]; CL1-5, +HSA (40 mg/ml))?
A: 1370 ± 70 nM

Q: And the IC50 ([1]; CL1-5, −HSA)?
A: 9.8 ± 0.3 nM

Q: For `CC[C@@]1(O)C(=O)OCc2c1cc1n(c2=O)Cc2cc3c(NC(=O)OCc4ccc(O[C@@H]5O[C@H](C(=O)O)[C@@H](O)[C@H](O)[C@H]5O)cc4)cccc3nc2-1` [9ACG, 9-amino-camptothecin-glucuronide], which “Cytotoxicity Ratio (IC50 in the presence of HSA to IC50 without HSA)” value [1] is on record?
A: >15

Q: And the IC50 ([1]; CL1-5, +HSA (40 mg/ml))?
A: > 10000 nM

Q: And the IC50 ([1]; CL1-5, −HSA)?
A: 650 ± 40 nM

Q: And the Kcat (E. coli β-glucuronidase)?
A: 8.6 s⁻¹

Q: What about the Km (E. coli β-glucuronidase) of the same compound?
A: 30 µM

Q: With `CC[C@@]1(O)C(=O)OCc2c1cc1n(c2=O)Cc2c-1nc1ccc(O)c3c1c2CCC3` [BQC, 5,6-dihydro-4H-benzo[de]quinoline-camptothecin] as the compound, how does the Solubility (Water solubility; Buffer pH 4.5) read?
A: 0.120 µg/mL (≈ 0.297 µM)

Q: What about the Solubility (Water solubility; Buffer pH 7.0) of the same compound?
A: 0.200 µg/mL (≈ 0.495 µM)

Q: What about the “solubility in water-based buffers” value (Water solubility; pH 4.5) of the same compound?
A: 0.125 µg/mL (≈ 0.309 µM)

Q: What about the “solubility in water-based buffers” value (Water solubility; pH 7.0) of the same compound?
A: 0.2 µg/mL (≈ 0.495 µM)

Q: And the Solubility (Water solubility; water)?
A: 0.200 µg/mL (≈ 0.495 µM)

Q: What about the “Po/w (octanol/water partition coefficient)” value [2] of the same compound?
A: 1.67

Q: And the Po/w ([2]; Buffer pH 7.4)?
A: 1.46

Q: What about the Po/w ([2]; water) of the same compound?
A: 1.98

Q: And the “Cytotoxicity Ratio (IC50 in the presence of HSA to IC50 without HSA)” value ([1]; CL1-5)?
A: 9.5

Q: What about the IC50 ([1]; CL1-5, +HSA (40 mg/ml)) of the same compound?
A: 13 nM

Q: And the IC50 ([1]; CL1-5, −HSA)?
A: 1.4 nM and 1.37 nM

Q: And the IC50 (LS174T)?
A: 1.31 ± 0.03 nM

Q: And the IC50 (CaSki)?
A: 1.25 ± 0.05 nM

Q: And the IC50 [3]?
A: 1.78 ± 0.08 nM

Q: And the IC50 (other cancer cell lines)?
A: 1 to 2 nM

Q: Which Solubility (Water solubility; Buffer pH 7.0) does the source give for `CC[C@@]1(O)C(=O)OCc2c1cc1n(c2=O)Cc2c-1nc1ccc(OCc3ccc(O[C@@H]4O[C@H](C(=O)O)[C@@H](O)[C@H](O)[C@H]4O)c([N+](=O)[O-])c3)c3c1c2CCC3` [BQC-G] here?
A: 775 µg/mL (≈ 1060 µM)

Q: What about the “solubility in water based buffers” value (Water solubility; pH 7.0) of the same compound?
A: 775 µg/mL (≈ 1060 µM)

Q: What about the “solubility in water based buffers relative to BQC” value (Water solubility; versus BQC) of the same compound?
A: about 4000 fold

Q: What about the “Po/w (octanol/water partition coefficient)” value [2] of the same compound?
A: −0.44

Q: What about the Po/w ([2]; Buffer pH 7.4) of the same compound?
A: −1.01

Q: And the octanol/water partition coefficient ([2]; pH not stated (discussion))?
A: about −1

Q: And the Po/w ([2]; water)?
A: −0.44

Q: And the “stability in human serum” value [4]?
A: only trace amounts of BQC detected

Q: And the “hydrolysis to the parental aglycone BQC” value (human β-glucuronidase)?
A: completely hydrolyzed

Q: What about the “Cytotoxicity Ratio (IC50 in the presence of HSA to IC50 without HSA)” value ([1]; CL1-5) of the same compound?
A: 18.4

Q: What about the IC50 ([1]; CL1-5, +HSA (40 mg/ml)) of the same compound?
A: 1080 nM

Q: What about the IC50 ([1]; CL1-5, in the presence of HSA, hydrolyzed by β-glucuronidase) of the same compound?
A: 13 nM

Q: And the IC50 ([1]; CL1-5, without HSA, β-glucuronidase added)?
A: 1.3 nM

Q: What about the IC50 ([1]; CL1-5, −HSA) of the same compound?
A: 58 nM and 58.7 nM

Q: And the IC50 (LS174T)?
A: 24.6 ± 2.8 nM

Q: And the IC50 (CaSki)?
A: 31.2 ± 0.5 nM

Q: What about the IC50 [3] of the same compound?
A: 44.8 ± 0.7 nM

Q: What about the Kcat (E. coli β-glucuronidase) of the same compound?
A: 45.1 s⁻¹

Q: And the Km (E. coli β-glucuronidase)?
A: 4.6 µM

Q: What about the “hydrolysis to the parental aglycone BQC” value (E. coli β-glucuronidase; low concentrations of E. coli β-glucuronidase) of the same compound?
A: completely hydrolyzed

Q: Which results are given for `CC[C@@]1(O)C(=O)OCc2c1cc1n(c2=O)Cc2cc3ccccc3nc2-1` [CPT, camptothecin]?
A: Cytotoxicity Ratio (IC50 in the presence of HSA to IC50 without HSA) ([1]; CL1-5): >146; effect of HSA on cytotoxicity ([1]; CL1-5, in the presence of HSA): drastically reduced; IC50 [1, 5]: > 3000 nM; IC50 [1, 6]: 20.5 ± 1.3 nM; IC50 (LS174T; Homo sapiens): 9.7 ± 0.8 nM; IC50 (CaSki; Homo sapiens, Ca-Ski): 20 ± 2.1 nM; IC50 ([3]; Homo sapiens): 21 ± 3.9 nM

Q: Which results are given for `O=C(O)[C@H]1O[C@@H](Oc2ccc([N+](=O)[O-])cc2)[C@H](O)[C@@H](O)[C@@H]1O` [PNPG, p-nitrophenol β-D-glucuronide]?
A: Kcat (E. coli β-glucuronidase): 173 s⁻¹; Km (E. coli β-glucuronidase): 490 ± 84 µM

Q: For `CCc1c2c(nc3ccc(O)cc13)-c1cc3c(c(=O)n1C2)COC(=O)[C@]3(O)CC` [SN-38], which “Cytotoxicity Ratio (IC50 in the presence of HSA to IC50 without HSA)” value [1] is on record?
A: 9.1

Q: What about the IC50 ([1]; CL1-5, +HSA (40 mg/ml)) of the same compound?
A: 47.9 ± 1.9 nM

Q: And the IC50 ([1]; CL1-5, −HSA)?
A: 5.25 ± 0.08 nM

Q: What does the source list for `CC[C@@]1(O)C(=O)OCc2c1cc1n(c2=O)Cc2cc3c(CN(C)C)c(O)ccc3nc2-1` [topotecan]?
A: IC50 [1, 5]: 28.4 ± 0.7 nM; IC50 [1, 6]: 27.8 ± 0.3 nM
